From patent US7820628B2, “Tumor lesion regression and conversion in situ into autologous tumor vaccines by compositions that result in anti-Gal antibody binding” (University of Massachusetts Medical School, priority 2005, dated 2010)

Tested on: human natural anti-Gal
Test: TLC immunostaining of red blood cell glycolipids with human natural anti-Gal
Assay type: binding
Conditions: glycolipids on thin layer chromatography plates
Description: A rich source for α-gal glycolipids is rabbit red blood cells. The two major glycosphingolipids (GSL), i.e. glycolipids with ceramide tail, in rabbit red blood cell membranes are ceramide (Cer) trihexoside (CTH, with 3 sugars [hexoses], present also in human red blood cells) with the structure Galα1-4Galβ1-4Glc-Cer and ceramide pentahexoside (CPH, with 5 sugars [hexoses]) with α-gal epitopes as terminal part of the CPH structure of Galα1-3Galβ1-4GlcNAcβ1-3Galβ1-4Glc-Cer (Eto T, Iichikawa Y, Nishimura K, Ando S, Yamakawa T J. Biochem. (Tokyo) 1968; 64: 205-13, and Stellner K, Saito H, Hakomori S. Arch. Biochem. Biophys. 1973; 133: 464-72) (See FIG. 1 and FIG. 6A, lane 1).
The use of α-gal glycolipids in the clinical setting may require much more material than that isolated from rabbit red blood cell membranes. The logistic limitations in supplies of large amounts of rabbit red blood cells can be overcome by the use of bovine red blood cells (i.e., for example, cow) instead of rabbit red blood cells since there is no practical limit to the amounts of bovine blood which can be supplied for preparation of α-gal glycolipids. […]

Question: “Galα1-3Galβ1-4GlcNAcβ1-3Galβ1-4Glc-Cer [CPH]” was tested. Which “anti-Gal binding on TLC immunostaining” value did it give?
Answer: binding of the antibody to CPH
